From patent US20240101602A1, “ANTIMICROBIAL PEPTIDES AND METHOD OF PREVENTING OR TREATING INFECTION BY USING THE SAME” (priority 2020, published 2024) come the findings set out here.

Converted amounts (≈) assume the structure as drawn. Where two headings read alike, the source gives them in different places. Non-standard residues stand in square brackets, D forms with d. Residues, ends and D or L forms follow the SMILES beside them. *: point of attachment. Myristoyl = CCCCCCCCCCCCCC(=O)*

In assay [1] the test system is Acinetobacter baumannii ATCC 17978.
The next assay concerns Eco DH5α. The experiment in a line: MIC and MBC by serial dilution in 96-well plate. The class given is cell-based, Escherichia coli. How it is done: (§1) The effect of peptide length on the antimicrobial activity was investigated by deciding the minimal inhibitory concentration (MIC) and minimal bactericidal concentration (MBC) for each peptide against the pathogen with the media and growth conditions of phytopathogenic bacteria and E. coli as described in Table 1. Single bacterial colony grown on an optimal rich agar medium was picked, and each grew in 3 mL of the same rich liquid medium for 4 to 6 h.
(§2) For experiments carried out in the rich medium, the bacterial broth culture was then diluted in the same medium to give a final concentration of OD600=0.08, and then further diluted 100 folds in the same medium.
(§3) For experiments carried out in the minimal medium, the bacterial cells were collected from the bacterial liquid culture by centrifugation, re-suspended in an optimal minimal medium to give a final concentration of OD600=0.08, and then further diluted 100 folds in the same minimal medium.
(§4) Fifty microliters of serially diluted peptides (2-fold the final concentration) were added in a 96-well polystyrene plate with 50 μL of the bacterial culture. The final concentrations of peptides were 0, 2, 4, 8, 16 and 32 μg/mL. The plates were incubated at an optimal temperature without shaking.
(§5) MBC was determined as the lowest peptide concentration at which no colonies formed.

Assay [2] concerns Xanthomonas campestris pv. campestris strain Xcc17. The experiment in a line: MIC and MBC by serial dilution in 96-well plate. In kind it is cell-based. Conditions: Xcc Xcc17; Table 7. How it is done:
as §1, §2, §3, §4, §5

For assay [3], the system named is Xanthomonas euvesicatoria strain Xvt28. The experiment in a line: MIC and MBC by serial dilution in 96-well plate. The class given is cell-based. Conditions: Xev Xvt28; Table 7. The procedure: as §1, §2, §3, §4, §5
The test system of a further assay is Erwinia chrysanthemi. The class given is cell-based. The procedure: (§6) The effect of peptide length on the antimicrobial activity was investigated by deciding the minimal inhibitory concentration (MIC) and minimal bactericidal concentration (MBC) for each peptide against the pathogen with the media and growth conditions of phytopathogenic bacteria and E. coli as described in Table 1. Single bacterial colony grown on an optimal rich agar medium was picked, and each grew in 3 mL of the same rich liquid medium for 4 to 6 h. For experiments carried out in the rich medium, the bacterial broth culture was then diluted in the same medium to give a final concentration of OD600=0.08, and then further diluted 100 folds in the same medium. For experiments carried out in the minimal medium, the bacterial cells were collected from the bacterial liquid culture by centrifugation, re-suspended in an optimal minimal medium to give a final concentration of OD600=0.08, and then further diluted 100 folds in the same minimal medium. Fifty microliters of serially diluted peptides (2-fold the final concentration) were added in a 96-well polystyrene plate with 50 μL of the bacterial culture. […] The plates were incubated at an optimal temperature without shaking. […] MBC was determined as the lowest peptide concentration at which no colonies formed. The experiments were conducted in an optimal minimal medium for each pathogen. The media and growth conditions were described in Tables 2 and 3. MIC and MBC values were determined following the procedures described above. […] Fifty microliters of serially diluted peptides (2-fold the final concentration) were added in a 96-well polystyrene plate with 50 μL of the fungal spore suspension.

Assay [4] concerns Pectobacterium carotovorum subsp. carotovorum. In kind it is cell-based. The procedure: as §6
A further assay deals with Botrytis cinerea. In kind it is cell-based. Conditions: Bc; optimal minimal medium, crude peptides (Table 9). The procedure:
(§7) The experiments were conducted in an optimal minimal medium for each pathogen. The media and growth conditions were described in Tables 2 and 3. MIC and MBC values were determined following the procedures described above. […] Fifty microliters of serially diluted peptides (2-fold the final concentration) were added in a 96-well polystyrene plate with 50 μL of the fungal spore suspension. […] The plates were incubated at an optimal temperature without shaking. […] MFC was determined as the lowest peptide concentration at which no fungal growth was observed.

The next assay concerns Cgl FST02. In kind it is cell-based, Colletotricum gloeosporioides. As to conditions: Cgl FST02; optimal minimal medium, crude peptides (Table 9). The procedure: as §7
The subject of assay [5] is bacteria, fungal spores, and fungal mycelia. The class given is cell-based. As to conditions: SYTOX Green, crude peptides, room temperature in dark for 2 h.
For assay [6], the system named is Xanthomonas oryzae pv. oryzae strain Xoo28. Conditions: Xoo Xoo28; Table 7.
Assay [7] concerns Agrobacterium tumefaciens strain Atu C58C1.
Assay [8] has as its system Pseudomonas syringae pv. tomato strain DC3000.
In assay [9] the test system is Pseudomonas syringae pv. syringae strain B728a. Conditions: Pss B728a; Table 7.
In assay [10] the test system is Ralstonia solanacearum strain Pss4. Conditions: Rs Pss4; optimal minimal medium, crude peptides (Table 9).
For assay [11], the system named is Ralstonia solanacearum strain Pss190. Conditions: Rs Pss190; optimal minimal medium, crude peptides (Table 9).
The subject of assay [12] is Klebsiella pneumonia NTUH-K2044.
The test system of assay [13] is Staphylococcus aureus BCRC 10777.
For assay [14], the system named is Staphylococcus epidermidis ATCC 14990.
Assay [15] has as its system Cryptococcus neoformans H99.
The subject of assay [16] is Cryptococcus neoformans T1 (fluconazole-resistant).
Assay [17] deals with Cryptococcus neoformans 89-610 (fluconazole-resistant).
Assay [18] has as its system Cryptococcus deuterogattii R265.
For assay [19], the system named is Xanthomonas campestris pv. campestris strain Xcc17. The experiment in a line: IC50 of bacterial growth (OD600) in rich liquid medium. In kind it is cell-based. As to conditions: Xcc Xcc17, 24 h, purified peptides. How it is done: (§8) To measure the antimicrobial activity, single colony grown on an optimal rich agar medium for each bacterium was picked and grew in 3 mL of the same rich liquid medium for 4 to 6 h. The bacterial culture was then diluted in the same medium to give a final concentration of OD600=0.08 and then further diluted […] in the same medium. In each well of a 96-well polystyrene plate, 90 μL of the diluted culture was mixed with 10 μL of the peptide to give a peptide concentration of 0, 2, 10, and 20 μg/mL (final cell concentration is 5×10^5 CFU/mL). OD600 was measured after incubation at an optimal temperature for 24 h. IC50 was determined as the lowest peptide concentration inhibiting 50% of bacterial growth.

The test system of assay [20] is Xanthomonas euvesicatoria strain Xvt28. Described as above. The class given is cell-based. Conditions: Xev Xvt28, 24 h, purified peptides. How it is done:
as §8

The subject of assay [21] is Escherichia coli strain DH5a. Conditions: 24 h.
Assay [22] relates to Xanthomonas oryzae pv. oryzae strain Xoo28. As to conditions: Xoo Xoo28; rich medium, 24 h, purified peptides.
Assay [23] relates to Agrobacterium tumefaciens strain Atu C58C1. As to conditions: rich medium, 24 h, purified peptides.
For another assay, the system named is Candida albicans SC5314. As to conditions: Candida albicans SC5314; 48 h at 35° C., 0.125 to 64 μg/mL (Table 5).

What is called MBC is the smallest concentration meeting the test's criterion for killing. A low value points to greater bactericidal potency. Regarding `CCCCCCCCCCCCCC(=O)N[C@@H](Cc1c[nH]c2ccccc12)C(=O)N[C@@H](CCCCN)C(=O)N[C@@H](CCCCN)C(=O)N[C@H](C(=O)N[C@@H](CCCCN)C(=O)N[C@@H](CCCCN)C(=O)N[C@H](C(=O)N[C@H](C(=O)N[C@@H](CCCCN)C(=O)N[C@@H](CCCCN)C(=O)N[C@H](C(=O)N[C@@H](CCCCN)C(=O)N[C@@H](CCCCN)C(=O)N[C@H](C(N)=O)[C@@H](C)CC)[C@@H](C)CC)[C@@H](C)CC)[C@@H](C)CC)[C@@H](C)CC` [pepI2M] (Myristoyl-WKKIKKIIKKIKKI-NH2), in [1], the MBC came to 32 µg/mL (≈ 16 µM).
The term MIC denotes the least concentration at which growth counts as inhibited. Low readings indicate greater potency, high ones weaker potency. For the compound Ac-WKKLKKLLKKLKKL-NH2 [pepD2], the minimal bactericidal concentration (MBC) with Eco DH5α (Table 7) was 7.0 µg/mL; in the assay on Eco DH5α (Table 13), 8.0 µg/mL; in assay [2] it was 1.0 µg/mL; in [3], 3.5 µg/mL; in the assay on Erwinia chrysanthemi, 32.0 µg/mL; in assay [4], 18.8 µg/mL. For the same compound, the MBC is 6.7. μg/mL in [4] (Pcc, Table 13); 6.0 µg/mL in assay [6]; 2.2 µg/mL in assay [7]; 8.8 µg/mL in assay [8]; 14.7 µg/mL in assay [9]; 16 µg/mL in assay [12]. Also, the figures for the MBC in assay [13] and in assay [14] were 16 µg/mL and 32 µg/mL, respectively. For the same compound, the MIC is 4.3 µg/mL against Eco DH5α (Table 7); 8.0 µg/mL with Eco DH5α (Table 13); 1.0 µg/mL in assay [2]; 3.0 µg/mL in assay [3]; “— (“—” indicates no antimicrobial activity being detected at the highest peptide concentration (32 μg/mL) tested in this study.)” in the assay on Botrytis cinerea; “— (“—” indicates no antimicrobial activity being detected at the highest peptide concentration (32 μg/mL) tested in this study.)” with Cgl FST02. Also, the MIC was 5.0 µg/mL in assay [6]; 1.6 µg/mL in assay [7]; 4.8 µg/mL in assay [8]; 6.0 µg/mL in [9]; “— (“—” indicates no antimicrobial activity being detected at the highest peptide concentration (32 μg/mL) tested in this study.)” in [10]; “— (“—” indicates no antimicrobial activity being detected at the highest peptide concentration (32 μg/mL) tested in this study.)” in [11]. The minimal inhibitory concentration (MIC) in [12], in assay [13] and in assay [14] was 16 µg/mL in each case. In addition, the MBC/MFC against Erwinia chrysanthemi is 21.3 µg/mL; in assay [4], 8.0 µg/mL; against Botrytis cinerea, “— (“—” indicates no antimicrobial activity being detected at the highest peptide concentration (32 μg/mL) tested in this study.)”; in the assay on Cgl FST02, “— (“—” indicates no antimicrobial activity being detected at the highest peptide concentration (32 μg/mL) tested in this study.)”; in [10], “— (“—” indicates no antimicrobial activity being detected at the highest peptide concentration (32 μg/mL) tested in this study.)”; in assay [11], “— (“—” indicates no antimicrobial activity being detected at the highest peptide concentration (32 μg/mL) tested in this study.)”. The “membranolytic effect on the cell walls of bacteria, fungal spores, and fungal mycelia” value in assay [5] is reported as “significant membranolytic effect”.
Turning to `CC(=O)N[C@@H](Cc1c[nH]c2ccccc12)C(=O)N[C@H](CCCCN)C(=O)N[C@H](CCCCN)C(=O)N[C@H](CC(C)C)C(=O)N[C@H](CCCCN)C(=O)N[C@H](CCCCN)C(=O)N[C@H](CC(C)C)C(=O)N[C@H](CC(C)C)C(=O)N[C@H](CCCCN)C(=O)N[C@H](CCCCN)C(=O)N[C@H](CC(C)C)C(N)=O` [pepdD3, Ac-Wkklkkllkkl-NH2] (Ac-W[dK][dK][dL][dK][dK][dL][dL][dK][dK][dL]-NH2), the MIC in assay [15] (Cryptococcus neoformans H99) is 8 µg/mL (≈ 5.45 µM); in assay [16] (Cryptococcus neoformans T1 (fluconazole-resistant)), 4 µg/mL (≈ 2.73 µM); in assay [17] (Cryptococcus neoformans 89-610 (fluconazole-resistant)), 4 µg/mL (≈ 2.73 µM); in [18] (Cryptococcus deuterogattii R265), 4 µg/mL (≈ 2.73 µM). The MFC worked out at 8 µg/mL (≈ 5.45 µM) in assay [15] (H99), 4 µg/mL (≈ 2.73 µM) in assay [16] (T1 (fluconazole-resistant)), 4 µg/mL (≈ 2.73 µM) in [17] (89-610 (fluconazole-resistant)) and 4 µg/mL (≈ 2.73 µM) in [18].
Broadly, the IC50 is the concentration that inhibits the measured activity by half. Regarding Ac-WKLLKKLLKKLKKLLKKL-NH2 [pepC], the IC50 in assay [19] was 10.0 µg/mL; in assay [20] it was 8.0 µg/mL; in [21] (Eco DH5α, rich medium, purified peptides), 10.0 µg/mL; in assay [22], 12.5 µg/mL; in assay [23], 12.5 µg/mL. This compound also yielded an MIC in the assay with Candida albicans SC5314 of 32.0 µg/mL.
Take Ac-WKLKLKLKLKLKLKLKLK-NH2 [pepE]: the 50% inhibitory concentration (IC50) was determined as 4.0 µg/mL in assay [19]; 2.0 µg/mL in [20]; 10.0 µg/mL in [21] (DH5a); 7.3 µg/mL in assay [22]; 20.0 µg/mL in assay [23]. Also, in the assay with Candida albicans SC5314, the MIC result is “— (“—” indicates no antimicrobial activity being detected at the highest peptide concentration (64 μg/mL) tested.)”.
